Laboratory results as given in patent publication US8188093B2, “Pyrazinecarboxamide derivatives as HDL-cholesterol raising agents” (Hoffmann-La Roche Inc., priority 2006, dated 2012).

What was measured:
[1] = test system: lean, chow-fed male Sprague-Dawley rats; assay: Effects on plasma lipid levels (HDL cholesterol) in lean, chow fed rats; assay type: in vivo, rat; conditions: 30 mg/kg p.o. of compound, once daily for five days, size exclusion chromatography AUC
Experimental: Effects of compounds of formula I on plasma lipid levels were determined in lean, chow-fed male Sprague-Dawley rats with compounds administered by p.o. gavage. After one week of acclimation, blood samples were collected from 4 hour-fasted animals for plasma lipid determination. Animals were then assigned to treatment groups based on HDL-cholesterol levels. Compounds of formula I were administered by gavage, once daily for five days. Control animals received vehicle alone. Blood was collected on day five from 4 hour-fasted rats, 2 hours after a final treatment, for plasma lipid analysis. Total cholesterol, HDL-cholesterol, and triglycerides were determined by measuring total cholesterol, HDL-cholesterol, and triglyceride using colorimetric enzymatic assays (Roche Diagnostic GmbH, Mannheim, Germany). HDL-C was also quantified using size exclusion chromatography on superpose-6 column using a SMART system (Pharmacia). Lipoprotein distribution was calculated assuming a Gaussian distribution for each peak, using a nonlinear, least-squares curve-fitting procedure to calculate the area under the curve (AUC). Compound concentration was also determined in plasma.

[2] = test system: obese male Sprague Dawley rats; assay: Effects on plasma lipid levels (HDL cholesterol) in obese, high fat diet fed rats; assay type: in vivo, rat; conditions: 28-29 days
Experimental: Efficacy of compounds in modulating plasma lipid levels was determined also in obese male Sprague Dawley rats after 28-29 days administration of compounds. Male Sprague-Dawley rats of 10 weeks of age were fed a high fat diet during 3 weeks. Obese rats were distributed in groups according to homogeneous BW and FI evaluated a week before the start of the treatment. Treatment was administered as food-Admix. On day 29, blood was taken in the morning under slight anesthesia (retro-orbital method) in post-prandial conditions i.e. 4 h after food was removed. Plasma was separated from blood by low speed centrifugation and selected organs were taken (e.g. liver, fat). Total cholesterol, HDL-cholesterol, and triglycerides were determined by measuring total cholesterol, HDL-cholesterol and triglyceride using colorimetric enzymatic assays (Roche Diagnostic GmbH, Mannheim, Germany). HDL-C was also quantified using size exclusion chromatography on superpose-6 column using a SMART system (Pharmacia). Lipoprotein distribution was calculated assuming a Gaussian distribution for each peak, using a nonlinear, least-squares curve-fitting procedure to calculate the area under the curve (AUC). Compound concentration was also determined in plasma.

hamsters = assay: Effects on plasma lipid levels (HDL cholesterol) in hamsters; assay type: in vivo, hamster; conditions: 30 mg/kg po of compound, once daily for five days
Experimental: Efficacy of compounds in modulating plasma lipid levels was determined in hamsters after 5 days of daily administration of compounds. Male hamsters of 6-8 weeks of age were used in the studies. After one week of acclimation, blood samples were collected from 4 hour-fasted animals for plasma lipid determination. Animals were then assigned to treatment groups based on HDL-cholesterol levels. Compounds were administered by gavage, once daily for five days. Control animals received vehicle alone. Blood was collected on day five from 4 hour-fasted hamsters, 2 hours after a final treatment, for plasma lipid analysis. Total cholesterol, HDL-cholesterol, LDL-cholesterol, and triglycerides were determined using colorimetric enzymatic assays (Roche Diagnostic GmbH, Mannheim, Germany). HDL-cholesterol, LDL-cholesterol, and VLDL-cholesterol levels were also quantified using size exclusion chromatography on superpose-6 column using a SMART system (Pharmacia). Lipoprotein distribution was calculated assuming a Gaussian distribution for each peak, using a nonlinear, least-squares curve-fitting procedure to calculate the area under the curve. Compound concentration was also determined in plasma.

[3] = 30 mg/kg food admix of compound

Which melting point does the source give for `CCCCOc1ncc(C(=O)N[C@@H]2CCCC[C@H]2O)cc1-c1cc(C(F)(F)F)ccc1F` here?
The melting point was 172 to 178 °C.

Which results are given for `O=C(N[C@@H]1CCCC[C@H]1O)c1cnc(OCC2CC2)c(-c2ccc(Cl)cc2)c1` [5-(4-chloro-phenyl)-6-cyclopropylmethoxy-N-((1R,2R)-2-hydroxy-cyclohexyl)-nicotinamide]?
HDL Cholesterol levels [AUC as % compared to control] [1]: +30%; HDL Cholesterol levels [AUC as % compared to control] [2, 3]: +84%

For `O=C(N[C@@H]1CCCC[C@H]1O)c1cnc(OCC(F)(F)F)c(-c2ccc(Cl)cc2)c1` [5-(4-chloro-phenyl)-N-((1R,2R)-2-hydroxy-cyclohexyl)-6-(2,2,2-trifluoroethoxy)-nicotinamide], which “HDL Cholesterol levels [AUC as % compared to control]” value [1] is on record?
The value was “+78%”.

What about the “HDL Cholesterol levels [AUC as % compared to control]” value (hamsters) of the same compound?
Its value is “+69%”.

Which “HDL Cholesterol levels [AUC as % compared to control]” value [2, 3] does the source give for `COCCOc1ncc(C(=O)N[C@@H]2CCCC[C@H]2O)cc1-c1ccc(Cl)cc1` [5-(4-chloro-phenyl)-N-((1R,2R)-2-hydroxy-cyclohexyl)-6-(2-methoxy-ethoxy)-nicotinamide] here?
Its value is “+50%”.

Which “HDL Cholesterol levels [AUC as % compared to control]” value [1] does the source give for `O=C(N[C@@H]1CCCC[C@H]1O)c1cnc(OCC2CC2)c(-c2ccc(F)cc2)c1` [6-cyclopropylmethoxy-5-(4-fluoro-phenyl)-N-((1R,2R)-2-hydroxy-cyclohexyl)-nicotinamide] here?
Its value is “+35%”.

Which melting point does the source give for `O=C(N[C@@H]1CCCC[C@H]1O)c1cnc(Oc2ccccc2Cl)c(-c2ccc(Cl)cc2)n1` [Example 39, 5-(2-Chloro-phenoxy)-6-(4-chloro-phenyl)-pyrazine-2-carboxylic acid ((1R,2R)-2-hydroxy-cyclohexyl)-amide] here?
The melting point was 154 to 155 °C.

For `C[C@](O)(CNC(=O)c1cnc(OCC2CC2)c(-c2ccc(F)cc2)c1)C1CC1` [N—((R)-2-cyclopropyl-2-hydroxy-propyl)-6-cyclopropylmethoxy-5-(4-fluorophenyl)-nicotinamide], which “HDL Cholesterol levels [AUC as % compared to control]” value [1] is on record?
The value was “+73%”.

Which “HDL Cholesterol levels [AUC as % compared to control]” value ([2]; 10 mg/kg food admix) does the source give for `Cc1c(C(=O)NN2CCCCC2)nn(-c2ccc(Cl)cc2Cl)c1-c1ccc(Cl)cc1` [Rimonabant, reference compound] here?
The value was “+11%”.
